Laboratory results: patent US20250197387A1, “BCL-XL DEGRADERS AND USES THEREOF” (Kymera Therapeutics, Inc., priority 2021, published 2025)
Like-named read-outs stand apart in the source and are kept apart here.

Columns and labels:
Format in all cases: cell-based
[1] = test system: MOLT-4 cells; assay: CTG (CellTiter-Glo) cell viability assay, MOLT-4; conditions: 3 day incubation, read-out: CTG Cell Viability Assay - MOLT-4 3 day: Average external-IC50
Procedure, shortened: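 Luminescence from CellTiter-Glo, read after 3 days of compound exposure at 37 °C, gave viability; IC50 values came from three-parameter logistic curves. Cells were plated at 10,000 per well and dosed over nine 1:3 steps topping at 10 μM.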

[2] = test system: Caki-2 cells; assay: CTG (CellTiter-Glo) cell viability assay, Caki-2; conditions: Homo sapiens, 72 h, 3 day incubation, read-out: CTG Chempartner - Caki-2 3 day: Average external-IC50
Procedure: Compound-mediated viability effect on MOLT-4 and Caki-2 was quantitatively determined using the CellTiter-Glo® Luminescent Cell Viability Assay kit from Promega (Catalog number G7570) following manufacturer's recommended procedures. Briefly, MOLT-4 and Caki-2 cells were seeded into 384 well plates (Grenier Bio-One, Catalog number 781080) with a density of 10,000 cells per well. Compounds were then added to the assay plate with final top concentration of 10 μM and 1:3 dilution series with total of 9 doses. The final DMSO concentration is normalized to 0.2%. The assay plates were incubated at 37° C., for 3 days under 5% CO2. Then the assay plate was equilibrated at room temperature for 10 minutes. To determine cell viability, 30 uL CellTiter Glo reagent was added to each well and the assay plate was centrifuged at 1000 rpm for 30 second, incubated at room temperature for 10 min, and analyzed by detecting the luminescence using a multimode plate reader (EnVision 2105, PerkinElmer). The data was then analyzed by software Prism 7.0 from GraphPad and the dose response curves are fit using a three-parameter logistic equation to calculate IC50.
The letter codes for MOLT-4 IC50 include: A (<0.1 μM); B (0.1-1.0 μM); C (>1.0-3.0 μM); and D (>3.0 μM). The letter codes for Caki-2 IC50 include: A (<0.1 μM); B (0.1-1.0 μM); C (>1.0-10.0 μM); and D (>10.0 μM).

[3] = molecular target: T1, BCL-XL (Homo sapiens, UniProt Q07817); assay: BCL-XL degradation assay, western blot in MOLT-4 cells, 16 h; conditions: western blot, MOLT-4 cells, 16 h; for Dmax: read-out: Bcl-xL WB in MOLT-4 degradation 16 h: Average Dmax %; for DC50: read-out: Bcl-xL WB in MOLT-4 degradation 16 h: Mean external-Abs DC50
T1 construct: endogenous in cells; host or cells: MOLT-4
T1 sequence (Q07817 whole entry): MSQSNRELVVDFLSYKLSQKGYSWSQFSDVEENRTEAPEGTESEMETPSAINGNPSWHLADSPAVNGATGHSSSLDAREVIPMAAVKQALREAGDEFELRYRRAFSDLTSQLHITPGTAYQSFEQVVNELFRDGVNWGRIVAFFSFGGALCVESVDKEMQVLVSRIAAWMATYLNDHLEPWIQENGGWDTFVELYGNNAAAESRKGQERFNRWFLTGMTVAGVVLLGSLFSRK
Procedure, shortened: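 MOLT-4 cells treated with compounds at 0.02-10 μM final for 16 hr at 37° C; lysates analysed by western blot with anti-BCL-xL, beta-actin and GAPDH loading controls, infrared imaging and densitometry; DC50 and Dmax % reported as letter codes.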

[4] = molecular target: T1, BCL-XL; assay: Bcl-xL ELISA degradation in MOLT-4 cells, 6 h; conditions: for DC50: read-out: Bcl-xL ELISA in MOLT-4 degradation 6 h: Mean external-Abs DC50
Procedure: The letter codes for BCL-XL DC50 include: A (<0.01 μM); B (0.01-0.1 μM); C (>[…]); D (>0.5-1.0 μM); and E (>1.0 μM). The letter codes for Dmax % include A (>75%); B (50 to 75%); C (<50%).

Compound | IC50 ([1]; Homo sapiens, MOLT-4, 72 h) [nM] | Dmax [3] [%] | DC50 [3] [nM] | Dmax [4] [%] | DC50 [4] [nM] | Bcl-xL ELISA in MOLT-4 degradation 6 h: Average Dmax % [4] | IC50 [1] [nM] | Bcl-xL WB in MOLT-4 degradation 16 h: Average Dmax % [3] | IC50 [2] [nM]
Cc1c(-c2ccc(N3CCc4cccc(C(=O)Nc5nc6cccnc6s5)c4C3)nc2C(=O)NS(=O)(=O)CCCCCC(=O)N[C@H](C(=O)N2C[C@H](O)C[C@H]2C(=O)N[C@@H](C)c2ccc(C#N)cc2O)C(C)(C)C)cnn1CC1CCCCC1 (single isomer, unassigned) [I-485] | > 3000 | – | – | – | – | – | – | – | > 10000
Cc1ncsc1-c1ccc([C@H](C)NC(=O)[C@@H]2C[C@@H](O)CN2C(=O)[C@@H](NC(=O)CCCC(=O)N(C)CC#Cc2cccc(F)c2OCCCc2sc(N3CCc4cccc(C(=O)Nc5nc6ccccc6s5)c4C3)nc2C(=O)O)C(C)(C)C)cc1 [I-15] | – | 50 to 75 | 500 to 1000 | – | – | – | – | – | > 10000
Cc1ncsc1-c1ccc([C@H](C)NC(=O)[C@@H]2C[C@@H](O)CN2C(=O)[C@@H](NC(=O)CCCCCC(=O)N(C)CC#Cc2cccc(F)c2OCCCc2sc(N3CCc4cccc(C(=O)Nc5nc6ccccc6s5)c4C3)nc2C(=O)O)C(C)(C)C)cc1 [I-16] | – | > 75 | 100 to 500 | – | – | – | – | – | > 10000
Cc1ncsc1-c1ccc([C@H](C)NC(=O)[C@@H]2C[C@@H](O)CN2C(=O)[C@@H](NC(=O)CCCCCCCC(=O)N(C)CC#Cc2cccc(F)c2OCCCc2sc(N3CCc4cccc(C(=O)Nc5nc6ccccc6s5)c4C3)nc2C(=O)O)C(C)(C)C)cc1 [I-17] | – | > 75 | 10 to 100 | – | – | – | – | – | > 10000
Cc1ncsc1-c1ccc([C@H](C)NC(=O)[C@@H]2C[C@@H](O)CN2C(=O)[C@@H](NC(=O)CCCCCC(=O)NCCOc2ccc(C(=O)Nc3nc4ccccc4s3)c3c2CCN(c2ccc(-c4cnn(CC5CCCCC5)c4C)c(C(=O)O)n2)C3)C(C)(C)C)cc1 [I-44] | – | > 75 | 100 to 500 | – | – | – | – | – | > 10000
Cc1cc([C@H](C(=O)N2C[C@H](O)C[C@H]2C(=O)NCc2ccc(-c3scnc3C)cc2OCCCCCCNC(=O)c2nc(N3CCc4cccc(C(=O)Nc5nc6ccccc6s5)c4C3)ccc2-c2cnn(CC3CCCCC3)c2C)C(C)C)on1 [I-197] | 100 to 1000 | > 75 | 10 to 100 | < 50 | > 1000 | – | – | – | –
Cc1ncsc1-c1ccc(CNC(=O)[C@@H]2C[C@@H](O)CN2C(=O)[C@@H](NC(=O)C2(F)CC2)C(C)(C)C)c(OCCN2CC3(C2)CN(C(=O)c2nc(N4CCc5cccc(C(=O)Nc6nc7ccccc7s6)c5C4)ccc2-c2cnn(CC4CCCCC4)c2C)C3)c1 [I-207] | 100 to 1000 | 50 to 75 | 100 to 500 | < 50 | > 1000 | – | – | – | –
Cc1ncsc1-c1ccc(CNC(=O)[C@@H]2C[C@@H](O)CN2C(=O)[C@@H](NC(=O)C2(F)CC2)C(C)(C)C)c(OCCC2CN(CC[C@H](CSc3ccccc3)Nc3ccc(S(=O)(=O)NC(=O)c4ccc(N5CCN(CC6=C(c7ccc(Cl)cc7)CCC(C)(C)C6)CC5)cc4)cc3S(=O)(=O)C(F)(F)F)C2)c1 [I-208] | 100 to 1000 | 50 to 75 | 500 to 1000 | < 50 | > 1000 | – | – | – | –
Cc1ncsc1-c1ccc([C@H](C)NC(=O)[C@@H]2C[C@@H](O)CN2C(=O)[C@@H](NC(=O)CCC2CCC(S(=O)(=O)NC(=O)c3nc(N4CCc5cccc(C(=O)Nc6nc7ccccc7s6)c5C4)ccc3-c3cnn(CC4CCCCC4)c3C)CC2)C(C)(C)C)cc1 (stereo partly shown) [I-209] | < 100 | > 75 | 10 to 100 | 50 to 75 | 100 to 500 | – | – | – | –
Cc1ncsc1-c1ccc([C@H](C)NC(=O)[C@@H]2C[C@@H](O)CN2C(=O)[C@@H](NC(=O)N2CC(c3ccc(S(=O)(=O)NC(=O)c4nc(N5CCc6cccc(C(=O)Nc7nc8ccccc8s7)c6C5)ccc4-c4cnn(CC5CCCCC5)c4C)cc3)C2)C(C)(C)C)cc1 [I-210] | 100 to 1000 | > 75 | 100 to 500 | 50 to 75 | 100 to 500 | – | – | – | –
Cc1ncsc1-c1ccc([C@H](C)NC(=O)[C@@H]2C[C@@H](O)CN2C(=O)[C@@H](NC(=O)C2CCN(c3ccc(S(=O)(=O)NC(=O)c4nc(N5CCc6cccc(C(=O)Nc7nc8ccccc8s7)c6C5)ccc4-c4cccc5c4cnn5C(C)C)cc3)CC2)C(C)(C)C)cc1 [I-297] | – | – | – | < 50 | 500 to 1000 | – | – | – | 1000 to 10000
Cc1ncsc1-c1ccc(CNC(=O)[C@@H]2C[C@@H](O)CN2C(=O)[C@@H](NC(=O)C2(F)CC2)C(C)(C)C)c(OCC(=O)N2CCN(CC[C@H](CSc3ccccc3)Nc3ccc(S(=O)(=O)NC(=O)c4ccc(N5CCN(CC6=C(c7ccc(Cl)cc7)CCC(C)(C)C6)CC5)cc4)cc3S(=O)(=O)C(F)(F)F)CC2)c1 [I-387] | – | > 75 | 10 to 100 | – | – | – | – | – | > 10000
Cc1ncsc1-c1ccc([C@H](C)NC(=O)[C@@H]2C[C@@H](O)CN2C(=O)[C@@H](NC(=O)CCCCCCC(=O)N2CCN(CC3(C)CCC(c4ccc(Cl)cc4)=C(CN4CCN(c5ccc(C(=O)NS(=O)(=O)c6ccc(N[C@H](CCN7CCOCC7)CSc7ccccc7)c(S(=O)(=O)C(F)(F)F)c6)cc5)CC4)C3)CC2)C(C)(C)C)cc1 (stereo partly shown) [I-399] | – | – | < 10 | – | 100 to 500 | C (C (<50%)) | 100 to 1000 | A (A (>75%)) | –

Second part, led by results:

IC50 ([1]; Homo sapiens, MOLT-4, 72 h) [nM] | Dmax [3] [%] | DC50 [3] [nM] | Dmax [4] [%] | DC50 [4] [nM] | Bcl-xL ELISA in MOLT-4 degradation 6 h: Average Dmax % [4] | IC50 [1] [nM] | Bcl-xL WB in MOLT-4 degradation 16 h: Average Dmax % [3] | Compound | IC50 [2] [nM]
– | > 75 | < 10 | > 75 | < 10 | – | – | – | Cc1ncsc1-c1ccc([C@H](C)NC(=O)[C@@H]2C[C@@H](O)CN2C(=O)[C@@H](NC(=O)CCCCCS(=O)(=O)NC(=O)c2nc(N3CCc4cccc(C(=O)Nc5nc6ccccc6s5)c4C3)ccc2-c2cnn(CC3CCCCC3)c2C)C(C)(C)C)cc1 [I-118] | > 10000
1000 to 3000 | 50 to 75 | < 10 | < 50 | > 1000 | – | – | – | Cc1ncsc1-c1ccc(CNC(=O)[C@@H]2C[C@@H](O)CN2C(=O)[C@H](c2cc(N3CC4(CN(C(=O)CCCCC(=O)N(C)CC#Cc5ccc(OCCCc6ccc(N7CCc8cccc(C(=O)Nc9nc%10ccccc%10s9)c8C7)nc6C(=O)O)c(F)c5)C4)C3)no2)C(C)C)cc1 [I-192] | –
< 100 | > 75 | < 10 | > 75 | 10 to 100 | – | – | – | C#Cc1ccc([C@H](CO)NC(=O)[C@@H]2C[C@@H](O)CN2C(=O)[C@@H](NC(=O)CCc2ccc(S(=O)(=O)NC(=O)c3nc(N4CCc5cccc(C(=O)Nc6nc7ccccc7s6)c5C4)ccc3-c3cnn(CC4CCCCC4)c3C)cc2)C(C)(C)C)cc1 [I-194] | –
100 to 1000 | > 75 | < 10 | > 75 | 10 to 100 | – | – | – | Cc1ncsc1-c1ccc([C@H](C)NC(=O)[C@@H]2C[C@@H](O)CN2C(=O)[C@@H](NC(=O)CCCCCCCCC(=O)N2CCN(CC#Cc3ccc(OCCCc4sc(N5CCc6cccc(C(=O)Nc7nc8ccccc8s7)c6C5)nc4C(=O)O)c(F)c3)CC2)C(C)(C)C)cc1 [I-204] | –
100 to 1000 | > 75 | < 10 | 50 to 75 | 10 to 100 | – | – | – | Cc1ncsc1-c1ccc([C@H](C)NC(=O)[C@@H]2C[C@@H](O)CN2C(=O)[C@@H](NC(=O)COCCN2CCC(S(=O)(=O)NC(=O)c3nc(N4CCc5cccc(C(=O)Nc6nc7ccccc7s6)c5C4)ccc3-c3cnn(CC4CCCCC4)c3C)CC2)C(C)(C)C)cc1 [I-206] | –
100 to 1000 | > 75 | < 10 | 50 to 75 | 100 to 500 | – | – | – | Cc1ncsc1-c1ccc([C@H](C)NC(=O)[C@@H]2C[C@@H](O)CN2C(=O)[C@@H](NC(=O)N2CC(N3CCC(S(=O)(=O)NC(=O)c4nc(N5CCc6cccc(C(=O)Nc7nc8ccccc8s7)c6C5)ccc4-c4cnn(CC5CCCCC5)c4C)CC3)C2)C(C)(C)C)cc1 [I-212] | –
100 to 1000 | > 75 | < 10 | 50 to 75 | 500 to 1000 | – | – | – | Cc1ncsc1-c1ccc([C@H](C)NC(=O)[C@@H]2C[C@@H](O)CN2C(=O)[C@@H](NC(=O)CCCCCCC(=O)N2CCN(C[C@@]3(C)CCC(c4ccc(Cl)cc4)=C(CN4CCN(c5ccc(C(=O)NS(=O)(=O)c6ccc(N[C@H](CCN7CCOCC7)CSc7ccccc7)c(S(=O)(=O)C(F)(F)F)c6)cc5)CC4)C3)CC2)C(C)(C)C)cc1 [I-396] | –
